{"source": "ChEMBL document CHEMBL5143553", "about": "“Structure-activity relationship and mechanistic study on guggulsterone derivatives; Discovery of new anti-pancreatic cancer candidate” (Bioorg Med Chem, 2022)", "key": {"PANC-1 [1]": {"tested_on": "PANC-1", "test": "Preferential cytotoxic activity against human PANC-1 cells in nutrient-deprived medium", "type": "functional"}, "PANC-1 [2]": {"tested_on": "PANC-1", "test": "Preferential cytotoxic activity against human PANC-1 cells in Dulbecco's modified Eagle's medium", "type": "functional, cell-based"}, "[3]": {"test": "Selectivity index, ratio of PC50 for Preferential cytotoxic activity against human PANC-1 cells in Dulbecco's modified Eagle's medium to PC50 for Preferential cytotoxic activity against human PANC-1 cells in nutrient-deprived medium", "type": "functional"}, "PANC-1 [4]": {"tested_on": "PANC-1", "test": "Induction of morphological changes in human PANC-1 cells in nutrient-deprived medium assessed as induction of cell rounding and shrinkage at 10 uM within 24 hrs by Cyto-smart Lux2 live cell imaging based method", "type": "functional"}, "PANC-1 [5]": {"tested_on": "PANC-1", "test": "Induction of morphological changes in human PANC-1 cells in nutrient-deprived medium assessed as induction of leakage of intracellular components into the media at 10 uM within 24 hrs by Cyto-smart Lux2 live cell imaging based method", "type": "functional"}, "PANC-1 [6]": {"tested_on": "PANC-1", "test": "Induction of cell death in human PANC-1 cells in nutrient-deprived medium at 10 uM after 24 hrs by ethidium bromide-acridine orange double-staining assay", "type": "functional, cell-based"}, "PANC-1 [7]": {"tested_on": "PANC-1", "test": "Inhibition of cell migration in human PANC-1 cells in DMEM medium assessed as wound area level at 3 uM after 24 hrs by wound-healing assay relative to initial area (reference value: 55%)", "type": "functional", "design": "scale not given: the % may be the effect or the level left"}, "PANC-1 [8]": {"tested_on": "PANC-1", "test": "Inhibition of cell migration in human PANC-1 cells in DMEM medium assessed as wound area level at 5 uM after 24 hrs by wound-healing assay relative to initial area (reference value: 55%)", "type": "functional", "design": "scale not given: the % may be the effect or the level left"}, "PANC-1 [9]": {"tested_on": "PANC-1", "test": "Inhibition of cell migration in human PANC-1 cells in DMEM medium assessed as wound area level at 3 uM after 48 hrs by wound-healing assay relative to initial area (reference value: 23%)", "type": "functional", "design": "scale not given: the % may be the effect or the level left"}, "PANC-1 [10]": {"tested_on": "PANC-1", "test": "Inhibition of cell migration in human PANC-1 cells in DMEM medium assessed as wound area level at 5 uM after 48 hrs by wound-healing assay relative to initial area (reference value: 23%)", "type": "functional", "design": "scale not given: the % may be the effect or the level left"}, "PANC-1 [11]": {"tested_on": "PANC-1", "test": "Inhibition of colony formation in human PANC-1 cells in DMEM medium at 1 uM incubated for 10 days relative to control", "type": "functional", "conditions": "PANC-1, 240 h, time 10 day"}, "PANC-1 [12]": {"tested_on": "PANC-1", "test": "Inhibition of colony formation in human PANC-1 cells in DMEM medium at 3 uM incubated for 10 days relative to control", "type": "functional", "conditions": "PANC-1, 240 h, time 10 day"}, "PANC-1 [13]": {"tested_on": "PANC-1", "test": "Inhibition of colony formation in human PANC-1 cells in DMEM medium at 5 uM incubated for 10 days relative to control", "type": "functional", "conditions": "PANC-1, 240 h, time 10 day"}, "[14]": {"molecular_target": "T1, Serine/threonine-protein kinase AKT (Homo sapiens) (UniProt P31751+Q9Y243+P31749)", "T1 sequence (P31749 whole entry, looked up)": "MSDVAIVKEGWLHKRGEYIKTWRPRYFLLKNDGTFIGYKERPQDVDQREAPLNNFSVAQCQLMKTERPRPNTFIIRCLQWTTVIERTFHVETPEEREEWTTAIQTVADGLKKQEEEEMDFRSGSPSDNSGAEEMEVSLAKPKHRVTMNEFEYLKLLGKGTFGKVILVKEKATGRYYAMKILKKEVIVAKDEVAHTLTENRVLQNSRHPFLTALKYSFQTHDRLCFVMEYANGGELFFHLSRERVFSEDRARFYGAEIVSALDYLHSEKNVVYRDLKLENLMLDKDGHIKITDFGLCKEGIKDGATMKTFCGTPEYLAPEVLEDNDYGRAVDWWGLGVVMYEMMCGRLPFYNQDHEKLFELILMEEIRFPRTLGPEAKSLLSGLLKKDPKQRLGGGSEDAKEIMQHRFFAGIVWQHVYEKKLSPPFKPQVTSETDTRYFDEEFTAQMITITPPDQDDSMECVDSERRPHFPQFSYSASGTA", "T1 sequence (P31751 whole entry, looked up)": "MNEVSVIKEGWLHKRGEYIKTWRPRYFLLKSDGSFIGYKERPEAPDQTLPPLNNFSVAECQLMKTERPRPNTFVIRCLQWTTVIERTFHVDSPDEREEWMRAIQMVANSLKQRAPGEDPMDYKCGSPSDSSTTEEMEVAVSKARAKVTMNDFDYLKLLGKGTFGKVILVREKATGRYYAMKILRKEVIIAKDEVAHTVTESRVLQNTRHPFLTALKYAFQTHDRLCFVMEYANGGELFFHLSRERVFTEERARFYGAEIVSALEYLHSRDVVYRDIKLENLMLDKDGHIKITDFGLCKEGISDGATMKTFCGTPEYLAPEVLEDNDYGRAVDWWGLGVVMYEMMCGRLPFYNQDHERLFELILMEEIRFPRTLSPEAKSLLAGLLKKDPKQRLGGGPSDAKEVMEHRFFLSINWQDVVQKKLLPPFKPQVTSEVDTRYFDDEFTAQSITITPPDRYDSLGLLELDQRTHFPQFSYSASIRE", "T1 sequence (Q9Y243 whole entry, looked up)": "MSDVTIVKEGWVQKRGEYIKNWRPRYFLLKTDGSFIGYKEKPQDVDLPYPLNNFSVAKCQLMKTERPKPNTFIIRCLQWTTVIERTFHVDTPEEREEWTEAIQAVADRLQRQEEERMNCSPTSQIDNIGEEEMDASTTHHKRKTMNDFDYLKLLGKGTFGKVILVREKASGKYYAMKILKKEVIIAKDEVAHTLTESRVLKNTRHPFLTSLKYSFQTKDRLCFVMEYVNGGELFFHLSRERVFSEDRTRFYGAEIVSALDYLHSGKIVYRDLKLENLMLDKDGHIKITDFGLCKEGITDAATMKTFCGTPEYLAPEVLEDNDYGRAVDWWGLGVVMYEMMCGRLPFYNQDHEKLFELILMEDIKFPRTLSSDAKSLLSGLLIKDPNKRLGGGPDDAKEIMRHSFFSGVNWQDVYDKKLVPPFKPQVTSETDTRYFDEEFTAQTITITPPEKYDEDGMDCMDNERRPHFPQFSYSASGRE", "test": "Inhibition of Akt S473 phosphorylation in human PANC-1 cells in NDM medium at 2.5 to 10 uM incubated for 6 hrs by Western blot analysis", "type": "cell-based", "conditions": "dose 2.5-10 µM"}, "[15]": {"molecular_target": "T1, Serine/threonine-protein kinase AKT (Homo sapiens)", "test": "Inhibition of Akt S473 phosphorylation in human PANC-1 cells in DMEM medium at 10 uM incubated for 6 hrs by Western blot analysis", "type": "cell-based"}, "[16]": {"molecular_target": "T1, Serine/threonine-protein kinase AKT (Homo sapiens)", "test": "Inhibition of Akt signaling in human PANC-1 cells assessed as reduction in mTOR […] phosphorylation in NDM medium at 10 uM incubated for 6 hrs by Western blot analysis", "type": "cell-based"}, "PANC-1 [17]": {"tested_on": "PANC-1", "test": "Effect on Akt protein expression in human PANC-1 cells in DMEM medium at 1 to 10 uM incubated for 6 hrs by Western blot analysis", "type": "functional, cell-based", "conditions": "dose 1-10 µM"}, "PANC-1 [18]": {"tested_on": "PANC-1", "test": "Effect on mTOR protein expression in human PANC-1 cells in DMEM medium at 1 to 10 uM incubated for 6 hrs by Western blot analysis", "type": "functional, cell-based", "conditions": "dose 1-10 µM"}, "PANC-1 [19]": {"tested_on": "PANC-1", "test": "Effect on mTOR protein expression in human PANC-1 cells in NDM medium at 1 to 10 uM incubated for 6 hrs by Western blot analysis", "type": "functional, cell-based", "conditions": "dose 1-10 µM"}, "PANC-1 [20]": {"tested_on": "PANC-1", "test": "Effect on […] protein expression in human PANC-1 cells in NDM medium at 1 to 10 uM incubated for 6 hrs by Western blot analysis", "type": "functional, cell-based", "conditions": "dose 1-10 µM"}}, "note": "Calls of active or inactive are those of the source. The calls are words filed in the database; no cut-off is given here.", "data": [{"smiles": "C/C=C1/CC[C@H]2[C@@H]3CCC4=CC(=O)CC[C@]4(C)[C@H]3CC[C@]12C", "values": [{"measurement": "PC50", "setting": "PANC-1 [1]", "value": 3.2, "unit": "µM"}, {"measurement": "IC50", "setting": "PANC-1 [2]", "value": "> 100", "unit": "µM"}, {"measurement": "Selectivity Index", "setting": "[3]", "value": ">31"}]}, {"smiles": "C=C1CC[C@H]2[C@@H]3CCC4=CC(=O)CC[C@]4(C)[C@H]3CC[C@]12C", "values": [{"measurement": "PC50", "setting": "PANC-1 [1]", "value": 3.5, "unit": "µM"}, {"measurement": "IC50", "setting": "PANC-1 [2]", "value": 50, "unit": "µM"}, {"measurement": "Selectivity Index", "setting": "[3]", "value": 14}]}, {"smiles": "CCO[C@H]1CCCC2=CC(=O)CC[C@@]21C", "values": [{"measurement": "PC50", "setting": "PANC-1 [1]", "value": ">100", "unit": "µM"}, {"measurement": "IC50", "setting": "PANC-1 [2]", "value": "> 100", "unit": "µM"}]}, {"smiles": "C=C1C(=O)C[C@H]2[C@@H]3CC[C@H]4CCCC[C@]4(C)[C@H]3CC[C@]12C", "values": [{"measurement": "PC50", "setting": "PANC-1 [1]", "value": 0.8, "unit": "µM"}, {"measurement": "IC50", "setting": "PANC-1 [2]", "value": 3, "unit": "µM"}, {"measurement": "Selectivity Index", "setting": "[3]", "value": 3.8}]}, {"smiles": "C[C@]12CCC(=O)C=C1CC[C@@H]1[C@@H]2CC[C@]2(C)C(=C(F)F)CC[C@@H]12", "values": [{"measurement": "PC50", "setting": "PANC-1 [1]", "value": 5.2, "unit": "µM"}, {"measurement": "IC50", "setting": "PANC-1 [2]", "value": 91, "unit": "µM"}, {"measurement": "Selectivity Index", "setting": "[3]", "value": 18}]}, {"smiles": "COCO[C@@H]1C[C@H]2[C@@H]3CCC4=CC(=O)CC[C@]4(C)[C@H]3CC[C@]2(C)C1=C(F)F", "values": [{"measurement": "PC50", "setting": "PANC-1 [1]", "value": 9.2, "unit": "µM"}, {"measurement": "IC50", "setting": "PANC-1 [2]", "value": 29, "unit": "µM"}, {"measurement": "Selectivity Index", "setting": "[3]", "value": 3.2}]}, {"smiles": "CC(=O)O[C@H]1CCCC2=CC(=O)CC[C@@]21C", "values": [{"measurement": "PC50", "setting": "PANC-1 [1]", "value": ">100", "unit": "µM"}, {"measurement": "IC50", "setting": "PANC-1 [2]", "value": "> 100", "unit": "µM"}]}, {"smiles": "C=C1C(=O)C[C@H]2[C@@H]3CC[C@H]4CC(=O)CC[C@]4(C)[C@H]3CC[C@]12C", "values": [{"measurement": "PC50", "setting": "PANC-1 [1]", "value": 0.72, "unit": "µM"}, {"measurement": "IC50", "setting": "PANC-1 [2]", "value": 3.5, "unit": "µM"}, {"measurement": "Selectivity Index", "setting": "[3]", "value": 4.9}, {"measurement": "Activity", "setting": "PANC-1 [4]", "value": "Active"}, {"measurement": "Activity", "setting": "PANC-1 [5]", "value": "Active"}, {"measurement": "Activity", "setting": "PANC-1 [6]", "value": "Active"}, {"measurement": "Activity", "setting": "PANC-1 [7]", "value": 70, "unit": "%"}, {"measurement": "Activity", "setting": "PANC-1 [8]", "value": 85, "unit": "%"}, {"measurement": "Activity", "setting": "PANC-1 [9]", "value": 45, "unit": "%"}, {"measurement": "Activity", "setting": "PANC-1 [10]", "value": 70, "unit": "%"}, {"measurement": "inhibition at 1 µM", "setting": "PANC-1 [11]", "value": "> 50.9", "unit": "%"}, {"measurement": "inhibition at 3 µM", "setting": "PANC-1 [12]", "value": 97.7, "unit": "%"}, {"measurement": "inhibition at 5 µM", "setting": "PANC-1 [13]", "value": 100, "unit": "%"}, {"measurement": "inhibition", "setting": "[14]", "value": "Active"}, {"measurement": "inhibition", "setting": "[15]", "value": "Active"}, {"measurement": "inhibition", "setting": "[16]", "value": "Active"}, {"measurement": "Activity", "setting": "PANC-1 [17]", "value": "Non-Toxic"}, {"measurement": "Activity", "setting": "PANC-1 [18]", "value": "Non-Toxic"}, {"measurement": "Activity", "setting": "PANC-1 [19]", "value": "Non-Toxic"}, {"measurement": "Activity", "setting": "PANC-1 [20]", "value": "Non-Toxic"}]}, {"smiles": "C=C1C(=O)C[C@H]2[C@@H]3CCC4=CC(=O)CC[C@]4(C)[C@H]3CC[C@]12C", "values": [{"measurement": "PC50", "setting": "PANC-1 [1]", "value": 1.6, "unit": "µM"}, {"measurement": "Selectivity Index", "setting": "[3]", "value": 6.9}]}, {"smiles": "C=C1[C@H](O)C[C@H]2[C@@H]3CCC4=CC(=O)CC[C@]4(C)[C@H]3CC[C@]12C", "values": [{"measurement": "PC50", "setting": "PANC-1 [1]", "value": 57, "unit": "µM"}, {"measurement": "IC50", "setting": "PANC-1 [2]", "value": "> 100", "unit": "µM"}]}, {"smiles": "C=C1[C@H](OCOC)C[C@H]2[C@@H]3CCC4=CC(=O)CC[C@]4(C)[C@H]3CC[C@]12C", "values": [{"measurement": "PC50", "setting": "PANC-1 [1]", "value": 31, "unit": "µM"}, {"measurement": "IC50", "setting": "PANC-1 [2]", "value": 100, "unit": "µM"}, {"measurement": "Selectivity Index", "setting": "[3]", "value": 3.2}]}, {"smiles": "C[C@]12CC[C@H]3[C@@H](CCC4=CC(=O)CC[C@@]43C)[C@@H]1CC(=O)[C@@H]2CSCCO", "values": [{"measurement": "PC50", "setting": "PANC-1 [1]", "value": 53, "unit": "µM"}, {"measurement": "IC50", "setting": "PANC-1 [2]", "value": 100, "unit": "µM"}]}, {"smiles": "C/C=C1/C(=O)C[C@H]2[C@@H]3CCC4=CC(=O)CC[C@]4(C)[C@H]3CC[C@]12C", "values": [{"measurement": "PC50", "setting": "PANC-1 [1]", "value": "Active"}]}, {"smiles": "C=C1C(F)(F)C[C@H]2[C@@H]3CCC4=CC(=O)CC[C@]4(C)[C@H]3CC[C@]12C", "values": [{"measurement": "PC50", "setting": "PANC-1 [1]", "value": 14, "unit": "µM"}, {"measurement": "IC50", "setting": "PANC-1 [2]", "value": "> 100", "unit": "µM"}, {"measurement": "Selectivity Index", "setting": "[3]", "value": ">7.1"}]}, {"smiles": "C[C@]12CCC(=O)C=C1CC[C@@H]1[C@@H]2CC[C@]2(C)C(=C(F)F)[C@H](O)C[C@@H]12", "values": [{"measurement": "PC50", "setting": "PANC-1 [1]", "value": 18, "unit": "µM"}, {"measurement": "IC50", "setting": "PANC-1 [2]", "value": 51, "unit": "µM"}, {"measurement": "Selectivity Index", "setting": "[3]", "value": 2.8}]}]}
